Consider 17 molecules from patent US20250129103A1, “METHODS FOR TREATMENT OF CANCER” (Frontier Medicines Corporation, priority 2022, published 2025).

In brackets after ≈: the same amount, converted by molar mass.

The target of data set [1] is KRAS G12C (GMPPNP-loaded) and cRAF (Ras-binding domain) interaction (Homo sapiens (Human), UniProt P01116, C118S/C51S/C80L/G12C). The data set is described as follows: Inhibition of KRAS G12C and cRAF binding (AlphaScreen). Particulars: KRAS G12C loaded with GMPPNP, cRaf RBD, 2 hours preincubation; read-out: Raf-1 RBD K-Ras IC50. An outline of the steps:
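GMPPNP-loaded KRAS G12C in 25 mM Hepes pH 7.4, 150 mM NaCl, 5 mM MgCl2, 0.01% Triton X-100, 10 μM GMPPNP, 2% DMSO, preincubated with compound 2 h at room temperature. cRAF RBD plus AlphaScreen beads then added for 60-90 min; signal read at 570 nm.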
(In general: Alpha assays give light when donor and acceptor beads are brought close together.)

The nature of data set [2]: Determination of logD (1-octanol / phosphate buffer pH 7.4). It counts as physicochemical. Particulars: 1-octanol/phosphate buffer, pH 7.4, pH 7.4, 1-octanol/phosphate buffer; read-out: Log D, pH 7.4. A digest of the protocol: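 Shake-flask partition between 1-octanol and 100 mM phosphate buffer pH 7.4, each phase presaturated with the other overnight. Tubes shaken 1 h at 800 rpm, room temperature, then centrifuged. Both phases quantified by LCMS and logD calculated from the ratio.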

Data set [3] can be described thus: Determination of kinetic solubility (pH 7.4). Type of data set: physicochemical. Particulars: phosphate buffer, pH 7.4, aqueous buffer, kinetic from dmso stock, 50 mM phosphate buffer pH 7.4, read-out: Ksol, pH 7.4. An outline of the steps: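 Sample mixed with 50 mM phosphate buffer, pH 7.4, vortexed, then shaken 2 h at room temperature and centrifuged. Filtrate analysed by HPLC-UV and LC-MS/MS, with solubility read from peak areas against a standard calibration curve.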

Data set [4] addresses KRAS G12C (GMPPNP-loaded) and PI3Ka (Ras-binding domain) interaction (Homo sapiens (Human), UniProt P01116, C118S/C51S/C80L/G12C). Kind of data set: Inhibition of KRAS G12C and PI3Ka binding (AlphaScreen). Particulars: KRAS G12C loaded with GMPPNP, PI3Ka RBD, 2 hours preincubation; read-out: PI3K RBD K-Ras IC50. A digest of the protocol:
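Biotin-AviTag Cys-light KRAS G12C (aa 1-169, C51S/C80L/C118S), GMPPNP-loaded, 1.5 nM, preincubated 2 h with compound, then His-tagged PI3Ka RBD (aa 157-300, 100 nM) plus AlphaScreen beads added for 60-90 min, RT. Buffer Hepes pH 7.4, 10 μM GMPPNP, 2% DMSO; 10-point 1:3 from 50 μM; 4-parameter IC50.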

Chain of KRAS G12C (GMPPNP-loaded) and PI3Ka (Ras-binding domain) interaction (P01116 other isoform, or with tags, fused parts or gaps G12C/C51S/C80L/C118S): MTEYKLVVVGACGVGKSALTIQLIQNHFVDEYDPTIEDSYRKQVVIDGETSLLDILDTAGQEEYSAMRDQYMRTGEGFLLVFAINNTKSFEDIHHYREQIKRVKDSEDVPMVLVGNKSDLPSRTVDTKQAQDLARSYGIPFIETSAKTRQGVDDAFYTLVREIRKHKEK
Chain of KRAS G12C (GMPPNP-loaded) and cRAF (Ras-binding domain) interaction (P01116 other isoform, or with tags, fused parts or gaps G12C/C51S/C80L/C118S): as above

Take `N#CC[C@H]1CN(c2nc(OCC34CCCN3CCC4)nc3c2CCN(c2cccc4cccc(Cl)c24)C3)CCN1C(=O)/C=C/c1nc(C(F)(F)F)no1` [Example 17, (S,E)-2-(4-(7-(8-chloronaphthalen-1-yl)-2-((hexahydro-1H-pyrrolizin-7a-yl)methoxy)-5,6,7,8-tetrahydropyrido[3,4-d]pyrimidin-4-yl)-1-(3-(3-(trifluoromethyl)-1,2,4-oxadiazol-5-yl)acryloyl)piperazin-2-yl)acetonitrile]: the IC50 in data set [1] and in data set [4] was under 10 nM each time. The logD in data set [2] came to 4.32. In addition, the solubility kinetic at 2 h in data set [3] stood at 0.01 µg/mL (≈ 0.0134 µM).

Turning to `N#CC[C@H]1CN(c2nc(OC[C@@]34CCCN3C[C@H](F)C4)nc3c2CCN(c2cccc4ccc(F)c(Cl)c24)C3)CCN1C(=O)/C=C/CN1CCOCC1` [Compound 52], the IC50 in data set [1] and in data set [4] was under 10 nM each time. In addition, the logD in data set [2] came to 3.8. In addition, the solubility kinetic at 2 h in data set [3] came to 23.8 µg/mL (≈ 31.8 µM).

As for `N#CC[C@H]1CN(c2nc(OC[C@@]34CCCN3C[C@H](F)C4)nc3c(F)c(-c4cccc(Cl)c4C4CC4)ncc23)CCN1C(=O)/C=C/CN1CC2CC(C1)O2` [Compound 244], the IC50 (usually the concentration that inhibits the measured activity by half) in data set [1] was under 10 nM; in data set [4] it was 10 to 100 nM. Moreover, the logD in data set [2] worked out at 3.13. Also, the solubility kinetic at 2 h in data set [3] was determined as 121 µg/mL (≈ 163 µM).

On to `CN1CCC1/C=C/C(=O)N1CCN(c2nc(OC[C@@]34CCCN3C[C@H](F)C4)nc3c(F)c(-c4cccc5ccc(F)c(Cl)c45)ncc23)C[C@@H]1CC#N` (some centres unmarked) [Compound 54], for which the half-inhibitory concentration (IC50) in data set [1] and in data set [4] was under 10 nM throughout. For the same molecule, in data set [2], the logD came to 2.59. In addition, the solubility kinetic at 2 h in data set [3] was determined as 135 µg/mL (≈ 185 µM).

As to `Cc1nccc(/C=C/C(=O)N2CCN(c3nc(OC[C@@]45CCCN4C[C@H](F)C5)nc4c(F)c(-c5cccc6ccccc56)ncc34)C[C@@H]2CC#N)n1` [Compound 215], the IC50 in data set [1] and in data set [4] was under 10 nM throughout. The logD in data set [2] is 2.16. Moreover, the solubility kinetic at 2 h in data set [3] worked out at 16.5 µg/mL (≈ 23.6 µM).

With `Cc1nccc(/C=C/C(=O)N2CCN(c3nc(OCC45CCCN4CCC5)nc4c3CCN(c3cccc5cccc(Cl)c35)C4)C[C@@H]2CC#N)n1` [Compound 202], the IC50 in data set [1] and in data set [4] was under 10 nM each time. The logD in data set [2] is 3.38. The solubility kinetic at 2 h in data set [3] is 90.2 µg/mL (≈ 128 µM).

For the molecule `CO[C@H]1CCN(C/C=C/C(=O)N2CCN(c3nc(OC[C@@]45CCCN4C[C@H](F)C5)nc4c(F)c(-c5cccc6ccc(F)c(Cl)c56)ncc34)C[C@@H]2CC#N)C1` [Example 80, 2-((S)-4-(7-(8-chloro-7-fluoronaphthalen-1-yl)-8-fluoro-2-(((2R,7aS)-2-fluorotetrahydro-1H-pyrrolizin-7a(5H)-yl)methoxy)pyrido[4,3-d]pyrimidin-4-yl)-1-((E)-4-((S)-3-methoxypyrrolidin-1-yl)but-2-enoyl)piperazin-2-yl)acetonitrile], the IC50 in data set [1] and in data set [4] was under 10 nM each time. Further, in data set [2], the logD was 3.2. Also, in data set [3], the solubility kinetic at 2 h was determined as 146 µg/mL (≈ 189 µM).

`N#CC[C@H]1CN(c2nc(OC[C@@]34CCCN3C[C@H](F)C4)nc3c(F)c(-c4cccc5cccc(Cl)c45)ncc23)CCN1C(=O)/C=C/CN1CC2CC(C1)O2` [Example 86, 2-((2S)-1-((E)-4-(6-oxa-3-azabicyclo[3.1.1]heptan-3-yl)but-2-enoyl)-4-(7-(8-chloronaphthalen-1-yl)-8-fluoro-2-(((2R,7aS)-2-fluorohexahydro-1H-pyrrolizin-7a-yl)methoxy)pyrido[4,3-d]pyrimidin-4-yl)piperazin-2-yl)acetonitrile]: the IC50 in data set [1] and in data set [4] was under 10 nM in each case. The logD in data set [2] is 2.9. Further, the solubility kinetic at 2 h in data set [3] was found to be 96.6 µg/mL (≈ 128 µM).

Consider `C#Cc1c(F)ccc2cccc(-c3ncc4c(N5CCN(C(=O)/C=C/c6ccnc(C)n6)[C@@H](CC#N)C5)nc(OC[C@@]56CCCN5C[C@H](F)C6)nc4c3F)c12` [Compound 103, 2-((S)-4-(7-(8-ethynyl-7-fluoronaphthalen-1-yl)-8-fluoro-2-(((2R,7aS)-2-fluorotetrahydro-1H-pyrrolizin-7a(5H)-yl)methoxy)pyrido[4,3-d]pyrimidin-4-yl)-1-((E)-3-(2-methylpyrimidin-4-yl)acryloyl)piperazin-2-yl)acetonitrile], for which the IC50 in data set [1] and in data set [4] was under 10 nM in each case. Moreover, in data set [2], the logD stood at 3.29. Moreover, the solubility kinetic at 2 h in data set [3] came out at 10 µg/mL (≈ 13.5 µM).

With `N#CC[C@H]1CN(c2nc(OC[C@@]34CCCN3C[C@H](F)C4)nc3c(F)c(-c4cccc5ccc(F)c(Cl)c45)ncc23)CCN1C(=O)/C=C/CN1C[C@@H]2C[C@H]1CO2` [Example 71, 2-((S)-1-((E)-4-((1S,4S)-2-oxa-5-azabicyclo[2.2.1]heptan-5-yl)but-2-enoyl)-4-(7-(8-chloro-7-fluoronaphthalen-1-yl)-8-fluoro-2-(((2R,7aS)-2-fluorotetrahydro-1H-pyrrolizin-7a(5H)-yl)methoxy)pyrido[4,3-d]pyrimidin-4-yl)piperazin-2-yl)acetonitrile], the IC50 in data set [1] and in data set [4] was under 10 nM each time. In data set [2], the logD worked out at 2.9. In addition, the solubility kinetic at 2 h in data set [3] stood at 88.9 µg/mL (≈ 115 µM).

Consider `C[C@@H]1CN(C/C=C/C(=O)N2CCN(c3nc(OC[C@@]45CCCN4C[C@H](F)C5)nc4c(F)c(-c5cccc6cccc(Cl)c56)ncc34)C[C@@H]2CC#N)C[C@@H](C)O1` [Compound 187], for which the IC50 in data set [1] and in data set [4] was under 10 nM in each case. In addition, the logD in data set [2] turned out to be 3.61. The solubility kinetic at 2 h in data set [3] was 84 µg/mL (≈ 109 µM).

`Cc1cc(N)nc(-c2ncc3c(N4CCN(C(=O)/C=C/CN5CCOCC5)[C@@H](CC#N)C4)nc(OC[C@@]45CCCN4C[C@H](F)C5)nc3c2F)c1C(F)(F)F` [Compound 55]: the IC50 in data set [1] and in data set [4] was 10 to 100 nM each time. Besides, the logD in data set [2] was determined as 1.53. The solubility kinetic at 2 h in data set [3] was found to be 128 µg/mL (≈ 169 µM).

On to `N#CC[C@H]1CN(c2nc(OC[C@@]34CCCN3C[C@H](F)C4)nc3c(F)c(-c4cccc5ccc(F)c(Cl)c45)ncc23)CCN1C(=O)/C=C/CN1CC2CC(C1)O2` [Example 77, 2-((2S)-1-((E)-4-(6-oxa-3-azabicyclo[3.1.1]heptan-3-yl)but-2-enoyl)-4-(7-(8-chloro-7-fluoronaphthalen-1-yl)-8-fluoro-2-(((2R,7aS)-2-fluorotetrahydro-1H-pyrrolizin-7a(5H)-yl)methoxy)pyrido[4,3-d]pyrimidin-4-yl)piperazin-2-yl)acetonitrile], for which the IC50 in data set [1] and in data set [4] was under 10 nM in each case. Further, the logD in data set [2] was 2.92. The solubility kinetic at 2 h in data set [3] worked out at 116 µg/mL (≈ 151 µM).

For `CO[C@H]1CCN(C/C=C/C(=O)N2CCN(c3nc(OC[C@@]45CCCN4C[C@H](F)C5)nc4c(F)c(-c5cccc6cccc(F)c56)ncc34)C[C@@H]2CC#N)C1` [Compound 222], the IC50 in data set [1] and in data set [4] was under 10 nM each time. Further, the logD in data set [2] is 2.76. The solubility kinetic at 2 h in data set [3] stood at 91.6 µg/mL (≈ 124 µM).

For the molecule `N#CC[C@H]1CN(c2nc(OC[C@@]34CCCN3C[C@H](F)C4)nc3c(F)c(-c4cccc5cccc(Cl)c45)ncc23)CCN1C(=O)/C=C/CN1CCOCC1` [Compound 48], the IC50 in data set [1] and in data set [4] was 10 to 100 nM in each case. In data set [2], the logD was found to be 2.71. Besides, the solubility kinetic at 2 h in data set [3] was determined as 110 µg/mL (≈ 148 µM).

On to `CCO[C@H]1CCN(C/C=C/C(=O)N2CCN(c3nc(OC[C@@]45CCCN4C[C@H](F)C5)nc4c(F)c(-c5cccc6cccc(Cl)c56)ncc34)C[C@@H]2CC#N)C1` [Compound 91, 2-((S)-4-(7-(8-chloronaphthalen-1-yl)-8-fluoro-2-(((2R,7aS)-2-fluorohexahydro-1H-pyrrolizin-7a-yl)methoxy)pyrido[4,3-d]pyrimidin-4-yl)-1-((E)-4-((S)-3-ethoxypyrrolidin-1-yl)but-2-enoyl)piperazin-2-yl)acetonitrile], for which the IC50 in data set [1] and in data set [4] was under 10 nM each time. Besides, the logD in data set [2] worked out at 1.83. The solubility kinetic at 2 h in data set [3] came out at 110 µg/mL (≈ 143 µM).

Take `Cc1cc(/C=C/C(=O)N2CCN(c3nc(OC[C@@]45CCCN4C[C@H](F)C5)nc4c(F)c(-c5cccc6ccc(F)c(F)c56)ncc34)C[C@@H]2CC#N)nc(C)n1` [Example 90, 2-((S)-4-(7-(7,8-difluoronaphthalen-1-yl)-8-fluoro-2-(((2R,7aS)-2-fluorotetrahydro-1H-pyrrolizin-7a(5H)-yl)methoxy)pyrido[4,3-d]pyrimidin-4-yl)-1-((E)-3-(2,6-dimethylpyrimidin-4-yl)acryloyl)piperazin-2-yl)acetonitrile]: the IC50 in data set [1] was 10 to 100 nM; in data set [4] it was under 10 nM. Further, the logD in data set [2] was determined as 3.77. For the same molecule, the solubility kinetic at 2 h in data set [3] was determined as 5.26 µg/mL (≈ 7 µM).
